The record followed here is article PMC10534724, “Interaction of ALK Inhibitors with Polyspecific Organic Cation Transporters and the Impact of Substrate-Dependent Inhibition on the Prediction of Drug–Drug Interactions” (Pharmaceutics, 2023).

SMILES strings stand for the structures. Where two headings read alike, the source gives them in different places.

The experiment deals with T1, hOCT2 (Homo sapiens, UniProt O15244).
T1 sequence (O15244 1-555): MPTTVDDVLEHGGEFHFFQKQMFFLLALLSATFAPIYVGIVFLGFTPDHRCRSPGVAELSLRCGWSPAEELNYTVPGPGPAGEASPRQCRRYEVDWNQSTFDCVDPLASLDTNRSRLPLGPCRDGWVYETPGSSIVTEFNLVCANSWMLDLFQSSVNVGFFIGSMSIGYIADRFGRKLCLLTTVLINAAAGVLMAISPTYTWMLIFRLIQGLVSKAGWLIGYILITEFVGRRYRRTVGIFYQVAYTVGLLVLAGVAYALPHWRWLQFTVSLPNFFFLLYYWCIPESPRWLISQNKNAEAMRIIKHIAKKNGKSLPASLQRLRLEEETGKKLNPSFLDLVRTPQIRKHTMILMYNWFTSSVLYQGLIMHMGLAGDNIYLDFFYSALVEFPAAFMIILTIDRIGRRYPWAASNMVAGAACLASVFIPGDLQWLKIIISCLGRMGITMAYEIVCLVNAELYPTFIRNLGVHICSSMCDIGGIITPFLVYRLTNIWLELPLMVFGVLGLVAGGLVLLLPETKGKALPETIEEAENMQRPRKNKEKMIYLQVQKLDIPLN
The experiment in a line: Inhibition of hOCT2-mediated substrate uptake in transfected HEK293 cells. The format is in vitro ADME. The arrangement: expressed in transfected cells. The settings on record: for In vivo DDI study recommendation, hOCT2: FDA-recommended criteria.

`COc1cc(N2CCC(N3CCN(C)CC3)CC2)ccc1Nc1ncc(Cl)c(Nc2ccccc2P(C)(C)=O)n1` [Brigatinib]: the IC50 is 15.5 ± 0.5 µM (30-min preincubation with inhibitor at 37 °C, 8.9 µM [14C]metformin, 2 min uptake, read-out: IC50, hOCT2-mediated [14C]metformin uptake, Preincubation); 36 ± 1.1 µM (coincubation (no preincubation), preincubation study, 8.9 µM [14C]metformin, 2 min uptake, read-out: IC50, hOCT2-mediated [14C]metformin uptake, Coincubation); more than 300 µM (substrate 1 µM [3H]MPP+, HEK293, 2 min, 37 °C, mean ± SD, read-out: IC50, hOCT2-mediated MPP+ uptake); more than 100 µM (substrate 1 µM mIBG, HEK293, 2 min, 37 °C, mean ± SD, read-out: IC50, hOCT2-mediated mIBG uptake); 30.2 ± 1.5 µM (substrate 8.9 µM [14C]metformin, HEK293, 2 min, 37 °C, mean ± SD, read-out: IC50, hOCT2-mediated metformin uptake). For the same compound, the “In vivo DDI study recommendation, hOCT2” value is “No” (substrate MPP+), “No” (substrate mIBG) and “No” (substrate metformin). In addition, the “inhibition of hOCT2 (in words)” value (substrates metformin, mIBG, MPP+) was “not a strong inhibitor”.
